In patent US20120264735A1 (priority 2009, published 2012):

Molecular target: T1, c-Met kinase (recombinant c-Met) (Homo sapiens, UniProt P08581)
T1 construct: 0.27 nM recombinant c-Met
Experiment: In vitro kinase assay I (homogeneous time-resolved fluorescence tyrosine kinase assay)
Format: biochemical
Method in brief: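 Biotinylated peptide (0.5 μM) phosphorylated by 0.2 nM recombinant c-Met with 50 μM MgATP, 60 min at room temperature, pH 7.4, 5% DMSO. EDTA stop; HTRF read with Eu-anti-phosphotyrosine antibody and streptavidin-APC. IC50 from 4-parameter logistic fit.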

T1 sequence (P08581 25-1390): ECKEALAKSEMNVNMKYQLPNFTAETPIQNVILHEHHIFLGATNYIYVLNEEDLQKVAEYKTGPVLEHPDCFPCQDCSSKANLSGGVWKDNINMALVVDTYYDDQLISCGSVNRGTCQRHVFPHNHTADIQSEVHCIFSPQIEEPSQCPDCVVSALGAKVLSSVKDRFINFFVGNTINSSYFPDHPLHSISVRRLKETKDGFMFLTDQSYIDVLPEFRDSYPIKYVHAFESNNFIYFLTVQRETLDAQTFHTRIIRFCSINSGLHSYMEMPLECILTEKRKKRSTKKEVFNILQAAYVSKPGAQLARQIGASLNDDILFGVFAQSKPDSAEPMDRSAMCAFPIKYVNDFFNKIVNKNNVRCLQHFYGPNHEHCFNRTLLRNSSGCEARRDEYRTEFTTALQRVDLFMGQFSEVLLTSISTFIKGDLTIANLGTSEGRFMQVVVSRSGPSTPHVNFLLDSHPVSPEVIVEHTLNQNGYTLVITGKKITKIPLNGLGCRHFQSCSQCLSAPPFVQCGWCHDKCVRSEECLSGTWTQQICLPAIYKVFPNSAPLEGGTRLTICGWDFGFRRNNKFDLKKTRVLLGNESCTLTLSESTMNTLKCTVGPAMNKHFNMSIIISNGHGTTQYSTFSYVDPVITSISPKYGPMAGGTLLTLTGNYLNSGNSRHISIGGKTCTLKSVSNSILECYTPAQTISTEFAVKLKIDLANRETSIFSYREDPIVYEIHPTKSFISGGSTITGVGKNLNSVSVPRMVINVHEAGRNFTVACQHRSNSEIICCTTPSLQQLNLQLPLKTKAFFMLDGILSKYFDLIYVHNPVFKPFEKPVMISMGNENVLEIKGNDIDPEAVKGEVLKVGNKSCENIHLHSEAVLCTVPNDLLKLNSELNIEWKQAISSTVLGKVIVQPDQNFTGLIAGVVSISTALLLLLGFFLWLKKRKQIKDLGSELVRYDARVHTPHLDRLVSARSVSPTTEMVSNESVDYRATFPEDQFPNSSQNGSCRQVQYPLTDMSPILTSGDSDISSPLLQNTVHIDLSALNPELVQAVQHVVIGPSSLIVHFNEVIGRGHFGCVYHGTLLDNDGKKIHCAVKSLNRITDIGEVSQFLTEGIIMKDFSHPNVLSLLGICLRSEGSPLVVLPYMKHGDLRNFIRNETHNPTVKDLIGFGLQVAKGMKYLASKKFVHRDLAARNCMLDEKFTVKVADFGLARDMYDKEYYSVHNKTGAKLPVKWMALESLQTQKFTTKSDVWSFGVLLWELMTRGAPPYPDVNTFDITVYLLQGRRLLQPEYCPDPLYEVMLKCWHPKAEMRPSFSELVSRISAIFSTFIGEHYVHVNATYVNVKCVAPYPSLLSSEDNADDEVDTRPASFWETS

Compound | IC50 [nM]
Cn1cc(-n2ccc(=O)c(Cc3cccc(NC(=O)OCCCN4CCOCC4)c3)n2)cn1 [Example 537, 3-morpholin-4-ylpropyl (3-{[1-(1-methyl-1H-pyrazol-4-yl)-4-oxo-1,4-dihydropyridazin-3-yl]methyl}phenyl)carbamate] | < 100
Cn1cc(-n2ccc(=O)c(Cc3cccc(-c4ncc(OCC(=O)OC(C)(C)C)cn4)c3)n2)cn1 [Example 287, tert-butyl [2-(3-{[1-(1-methyl-1H-pyrazol-4-yl)-4-oxo-1,4-dihydropyridazin-3-yl]methyl}phenyl)pyrimidin-5-yl]oxyacetate] | < 100
Cn1cc(-n2ccc(=O)c(Cc3cccc(-c4ncc(NC(=O)C5CCCO5)cn4)c3)n2)cn1 (racemic) [Example 462, rac-N-[2-(3-{[1-(1-methyl-1H-pyrazol-4-yl)-4-oxo-1,4-dihydro-pyridazin-3-yl}methyl}phenyl)pyrimidin-5-yl]tetra-hydrofuran-2-carboxamide] | < 100
Cn1cc(-n2ccc(=O)c(Cc3cccc(NC(=O)OCC4CCCCO4)c3)n2)cn1 (racemic) [Example 563, rac-tetrahydro-2H-pyran-2-ylmethyl (3-{[1-(1-methyl-1H-pyrazol-4-yl)-4-oxo-1,4-dihydropyridazin-3-yl]methyl}phenyl)carbamate] | < 100
COCCc1nc(-c2cccc(Cc3nn(-c4cnn(C)c4)ccc3=O)c2)no1 [Example 744, 3-{3-[5-(2-methoxyethyl)-1,2,4-oxadiazol-3-yl]benzyl}-1-(1-methyl-1H-pyrazol-4-yl)pyridazin-4(1H)-one] | 100 to 1000
N#Cc1cncc(-n2ccc(=O)c(Cc3cccc(NC(=O)OCC4CCOC4)c3)n2)c1 (racemic) [Example 130, rac-tetrahydrofuran-3-ylmethyl (3-{[1-(5-cyanopyridin-3-yl)-4-oxo-1,4-dihydropyridazin-3-yl]methyl}phenyl)carbamate] | < 100
Cn1cc(-n2ccc(=O)c(Cc3cccc(-c4ncc(OCC(F)c5ccncc5)cn4)c3)n2)cn1 (racemic) [Example 389, rac-3-(3-{5-[2-fluoro-2-(pyridin-4-yl)ethoxy]pyrimidin-2-yl}benzyl)-1-(1-methyl-1H-pyrazol-4-yl)pyridazin-4(1H)-one] | < 100
O=c1ccn(-c2cccnc2)nc1Cc1cccc(-c2ncccn2)c1 [Example 29, 1-pyridin-3-yl-3-(3-pyrimidin-2-ylbenzyl)pyridazin-4(1H)-one] | 100 to 1000
COCCNC(=O)Nc1cccc(Cc2nn(-c3cnn(C)c3)ccc2=O)c1 [Example 493, 1-(2-methoxyethyl)-3-(3-{[1-(1-methyl-1H-pyrazol-4-yl)-4-oxo-1,4-dihydropyridazin-3-yl]methyl}phenyl)urea] | < 100
Cn1cc(-n2ccc(=O)c(Cc3cccc(NC(=O)OC[C@@H]4CCCN4)c3)n2)cn1 [Example 616, (2S)-pyrrolidin-2-ylmethyl (3-{[1-(1-methyl-1H-pyrazol-4-yl)-4-oxo-1,4-dihydropyridazin-3-yl]methyl}phenyl)carbamate] | 100 to 1000
CCCOC(=O)Nc1cccc(Cc2nn(-c3cnn(CCOC)c3)ccc2=O)c1 [Example 107, propyl [3-({1-[1-(2-methoxyethyl)-1H-pyrazol-4-yl]-4-oxo-1,4-dihydropyridazin-3-yl}methyl)phenyl]carbamate] | 100 to 1000
CCOC(=O)Nc1cccc(Cc2nn(-c3cccc(OC)c3)ccc2=O)c1 [Example 649, Ethyl(3-{[1-(3-methoxyphenyl)-4-oxo-1,4-dihydropyridazin-3-yl]methyl}phenyl)carbamate] | 100 to 1000
CCn1cc(-n2ccc(=O)c(Cc3cccc(-c4ncc(OCCN5CCOCC5)cn4)c3)n2)cn1 [Example 312, 1-(1-ethyl-1H-pyrazol-4-yl)-3-{3-[5-(2-morpholin-4-ylethoxy)pyrimidin-2-yl]benzyl}pyridazin-4(1H)-one] | < 100
O=C(Nc1cccc(Cc2nn(-c3cc(F)cc(F)c3)ccc2=O)c1)OCC1CCCOC1 (racemic) [Example 607, rac-tetrahydro-2H-pyran-3-ylmethyl (3-{[1-(3,5-difluorophenyl)-4-oxo-1,4-dihydropyridazin-3-yl]methyl}phenyl)carbamate] | < 100
CC(c1cccc(-c2ncc(-c3cnn(C)c3)cn2)c1)c1nn(-c2ccc(F)c(F)c2)ccc1=O (single isomer, unassigned) [Example 239, 1-(3,4-difluorophenyl)-3-[(1R or S)-1-{3-[5-(1-methyl-1H-pyrazol-4-yl)pyrimidin-2-yl]phenyl}ethyl]pyridazin-4(1H)-one] | < 100
Cn1cc(-n2ccc(=O)c(Cc3cccc(-c4ncc(-c5cccnc5)cn4)c3)n2)cn1 [Example 412, 1-(1-methyl-1H-pyrazol-4-yl)-3-[3-(5-pyridin-3-ylpyrimidin-2-yl)benzyl]pyridazin-4(1H)-one] | < 100
COCCCc1cnc(-c2cccc(Cc3nn(-c4cnn(C)c4)ccc3=O)c2)nc1 [Example 439, 3-{3-[5-(3-methoxypropyl)pyrimidin-2-yl]benzyl}-1-(1-methyl-1H-pyrazol-4-yl)pyridazin-4(1H)-one] | < 100

Compound | IC50 [nM]
N#Cc1cccc(-n2ccc(=O)c(Cc3cccc(NC(=O)OCCN4CCOCC4)c3)n2)c1 [Example 597, 2-morpholin-4-ylethyl (3-{[1-(3-cyanophenyl)-4-oxo-1,4-dihydropyridazin-3-yl]methyl}phenyl)carbamate] | < 100
Cn1cc(-n2ccc(=O)c(Cc3cccc(-c4noc(CC5COC5)n4)c3)n2)cn1 [Example 745, 1-(1-methyl-1H-pyrazol-4-yl)-3-{3-[5-(oxetan-3-ylmethyl)-1,2,4-oxadiazol-3-yl]benzyl}pyridazin-4(1H)-one] | 100 to 1000
Cn1cc(-n2ccc(=O)c(Cc3cccc(-c4ncc(OCC5CCCO5)cn4)c3)n2)cn1 (racemic) [Example 260, rac-1-(1-methyl-1H-pyrazol-4-yl)-3-{3-[5-(tetrahydrofuran-2-ylmethoxy)pyrimidin-2-yl]benzyl}pyridazin-4(1H)-one] | < 100
Cn1cc(-n2ccc(=O)c(Cc3cccc(NC(=O)OCCC(C)(C)O)c3)n2)cn1 [Example 526, 3-hydroxy-3-methylbutyl (3-{[1-(1-methyl-1H-pyrazol-4-yl)-4-oxo-1,4-dihydropyridazin-3-yl]methyl}phenyl)carbamate] | < 100
CCOc1cnc(-c2cccc(Cc3nn(-c4cccc(C#N)c4)ccc3=O)c2)nc1 [Example 72, 3-[3-[3-(5-ethoxypyrimidin-2-yl)benzyl]-4-oxopyridazin-1(4H)-yl]benzonitrile] | < 100
Cn1cc(-n2ccc(=O)c(Cc3cccc(NC(=O)OCC(F)(F)F)c3)n2)cn1 [Example 544, 2,2,2-trifluoroethyl (3-{[1-(1-methyl-1H-pyrazol-4-yl)-4-oxo-1,4-dihydropyridazin-3-yl]methyl}phenyl)carbamate] | < 100
COCCOC(=O)Nc1cccc(Cc2nn(-c3cn[nH]c3)ccc2=O)c1 [Example 196, 2-methoxyethyl (3-{[4-oxo-1-(1H-pyrazol-4-yl)-1,4-dihydropyridazin-3-yl]methyl}phenyl)carbamate] | < 100
Cn1cc(-n2ccc(=O)c(Cc3cccc(NC(=O)OCc4ccccc4)c3)n2)cn1 [Example 498, benzyl(3-{[1-(1-methyl-1H-pyrazol-4-yl)-4-oxo-1,4-dihydropyridazin-3-yl]methyl}phenyl)carbamate] | < 100
Cc1nnc(-c2cccc(Cc3nn(-c4cnn(C)c4)ccc3=O)c2)s1 [Example 75, 1-(1-methyl-1H-pyrazol-4-yl)-3-[3-(5-methyl-1,3,4-thiadiazol-2-yl)benzyl]pyridazin-4(1H)-one] | 1000 to 3000
COCCOc1cnc(-c2cccc(C(C)c3nn(-c4cnn(C)c4)ccc3=O)c2)nc1 (single isomer, unassigned) [Example 222, 3-((1S or R)-1-{3-[5-(2-methoxyethoxy)pyrimidin-2-yl]phenyl}ethyl)-1-(1-methyl-1H-pyrazol-4-yl)pyridazin-4(1H)-one] | 100 to 1000
CCOc1cnc(-c2cccc(C(C)c3nn(-c4cccc(C(N)=O)c4)ccc3=O)c2)nc1 (racemic) [Example 738, rac-3-[3-{1-[3-(5-ethoxypyrimidin-2-yl)phenyl]ethyl}-4-oxopyridazin-1(4H)-yl]lbenzamide] | < 100
CC(c1cccc(-c2ncc(OC(C)C(C)(C)O)cn2)c1)c1nn(-c2cnn(C)c2)ccc1=O (single isomer, unassigned) [Example 383, 3-{(1R or S)-1-[3-(5-{[(1R or S)-2-hydroxy-1,2-dimethylpropyl]oxy}pyrimidin-2-yl)phenyl]ethyl}-1-(1-methyl-1H-pyrazol-4-yl)pyridazin-4(1H)-one] | < 100
CC(c1cccc(-c2ncc(O[C@@H]3CCNC[C@H]3F)cn2)c1)c1nn(-c2cnn(C)c2)ccc1=O (single isomer, unassigned) [Example 343, 3-{(1R or S)-1-[3-(5-{[(3R or S, 4R or S)-3-fluoropiperidin-4-yl]oxy}pyrimidin-2-yl)phenyl]ethyl}-1-(1-methyl-1H-pyrazol-4-yl)pyridazin-4(1H)-one] | 100 to 1000
O=C1CN(CCOC(=O)Nc2cccc(Cc3nn(-c4cc(F)cc(F)c4)ccc3=O)c2)CCN1 [Example 604, 2-(3-oxopiperazin-1-yl)ethyl (3-{[1-(3,5-difluorophenyl)-4-oxo-1,4-dihydropyridazin-3-yl]methyl}phenyl)carbamate] | < 100
CC(c1cccc(-c2ncn(C)n2)c1)c1nn(-c2cnn(C)c2)ccc1=O (single isomer, unassigned) [Example 682, 1-(1-methyl-1H-pyrazol-4-yl)-3-{(1S or R)-1-[3-(1-methyl-1H-1,2,4-triazol-3-yl)phenyl]ethyl} pyridazin-4(1H)-one] | 1000 to 3000
CC(c1cccc(-c2ncc(OC(C)C(C)(C)O)cn2)c1)c1nn(-c2cnn(C)c2)ccc1=O (single isomer, unassigned) [Example 385, 3-{(1R or S)-1-[3-(5-{[(1R or S)-2-hydroxy-1,2-dimethylpropyl]oxy}pyrimidin-2-yl)phenyl]ethyl}-1-(1-methyl-1H-pyrazol-4-yl)pyridazin-4(1H)-one] | < 100
